According to ChEMBL document CHEMBL1126463, “Thiol-induced crosslinking of human blood proteins: implications for tumor immunity” (Bioorg Med Chem Lett, 1992):

Assay: Effect of compound on gelation time of human serum induced by dithiothreitol (DTT)
Assay type: ADME

Inhibitory concentration | SMILES
> 200 mM | C=CCSCC=C [DIALLYL SULFIDE]
> 100 mM | O=C1O[C@H]([C@@H](O)CO)C(O)=C1O [ASCORBIC ACID]
10 mM | C=CCSS/C=C/C[S+]([O-])CC=C (stereo not drawn) [AJOENE]
> 200 mM | N[C@@H](CS)C(=O)O [CYSTEINE]
20 mM | O=C1OC(C(O)CO)C(=O)C1=O (stereo not drawn) [DEHYDROASCORBIC ACID]
20 mM | NC(CSSCC(N)C(=O)O)C(=O)O (stereo not drawn)
20 mM | CC(=O)C=O [METHYLGLYOXAL]

SMILES | Inhibitory concentration
C=CCSSCC=C [DIALLYLDISULFIDE] | 20 mM
